Measured values published in PMC8863579, “Effects of pharmacological inhibition of the sodium‐dependent phosphate cotransporter 2b (NPT2b) on intestinal phosphate absorption in mouse and rat models” (Pharmacology Research & Perspectives, 2022).
“And” between values parts separate entries of the source, which are not always exact repeats. Equal entries are not always repeated.

Key:
[1] = target: T1, Human NPT2c (Homo sapiens, UniProt Q8N130); experiment: 33P-phosphate uptake in CHO cells expressing human NPT2c; format: cell-based
T1 construct: Full Length cDNA Cloning and Generation of Cell Lines Over-Expressing Human NPT2a, NPT2c, Pit1, and Pit2; host or cells: CHO-K1 / T-REx CHO, pJTI R4 CMV-TO, tetracycline-induced
T1 sequence (Q8N130 1-599): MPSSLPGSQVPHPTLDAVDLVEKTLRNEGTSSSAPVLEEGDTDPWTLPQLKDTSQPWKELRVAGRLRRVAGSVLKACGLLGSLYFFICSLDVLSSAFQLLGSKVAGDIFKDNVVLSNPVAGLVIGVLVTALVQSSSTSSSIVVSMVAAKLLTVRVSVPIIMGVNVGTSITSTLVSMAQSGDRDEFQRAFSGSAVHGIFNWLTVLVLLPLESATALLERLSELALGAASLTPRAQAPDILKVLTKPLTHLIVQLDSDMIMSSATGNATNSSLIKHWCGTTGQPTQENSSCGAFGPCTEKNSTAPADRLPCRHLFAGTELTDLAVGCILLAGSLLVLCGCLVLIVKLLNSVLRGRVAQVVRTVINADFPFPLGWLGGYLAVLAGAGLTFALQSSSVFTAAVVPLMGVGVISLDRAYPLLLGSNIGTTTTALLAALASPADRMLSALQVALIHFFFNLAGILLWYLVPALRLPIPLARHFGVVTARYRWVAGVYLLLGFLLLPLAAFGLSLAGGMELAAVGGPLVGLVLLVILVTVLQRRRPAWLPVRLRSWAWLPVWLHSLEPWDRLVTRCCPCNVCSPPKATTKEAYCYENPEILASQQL
Protocol: T‐Rex™ Chinese Hamster Ovary cells (CHO; Thermo Fisher Scientific) stably expressing human, mouse, or rat NPT2b under a tetracycline‐inducible promoter were generated using standard cDNA transfection and clone selection procedures (see Supporting Information). Cells were plated in 96‐well CytoStar‐T® scintillating microplates and were incubated overnight in growth media plus 100 ng/ml of tetracycline to induce expression of NPT2b. The next day, cells were washed 3 times with 200 µl assay buffer (137 mM NaCl, 5.4 mM KCl, 2.8 mM CaCl2, 1.2 mM MgSO4, and 14 mM Tris‐HCl buffer, pH 7.5). LY3358966 serially diluted 1‐to‐3 in DMSO was added to cells with assay buffer. An equal volume of H3 ^33PO4 (PerkinElmer) in assay buffer supplemented with 5 µM potassium phosphate was then added to initiate radiolabeled phosphate (^33P‐phosphate) uptake. […] The plate was immediately read on a Wallac MicroBeta Trilux liquid scintillation counter. Percent inhibition at all concentrations tested was calculated, and IC50 values were then determined using a 4‐parameter logistic curve fitting equation.
Similar methods were used to measure the effects of LY3358966 on other transporters of interest, except that constitutive promoters were used to generate CHO cells over‐expressing human PiT1 and PiT2. The ^33P‐phosphate uptake was measured after 45 min at 20°C for the NPT2a, NPT2c, PiT1, and PiT2 assays. […]

[2] = test system: intestinal phosphate absorption; experiment: Recovery of radiolabeled phosphate in feces of rats; format: in vivo, rat; conditions: LY3358966 10 mg/kg
Protocol: (§1) Male Sprague Dawley rats, 260–287 g for the first study and 274–362 g for the second study, were fasted for 4 h (the first 4 h of the light cycle) then dosed with placebo, a 50 or 150 mg/kg sevelamer HCl water dispersion, LY3358966 SDD (10 mg/kg API) dissolved in water, or a combination of LY3358966 SDD and sevelamer HCl. Fifteen minutes later, the animals were dosed with radiolabeled phosphate as described above. In the first study, the animals were given free access to food, then feces were collected at 6, 24, and 48 h post radiolabeled phosphate dose. In the second study, the animals were fasted an additional 4 h, then feces, stomach, small intestine, and large intestine were individually collected. The gastrointestinal tract tissues and feces were digested overnight at 37°C in 1 N NaOH, and the recovered radioactivity was determined.

[3] = test system: intestinal phosphate absorption; experiment: Recovery of radiolabeled phosphate in gastrointestinal tract of rats at 4 h; format: in vivo, rat; conditions: LY3358966 10 mg/kg
Protocol: as §1

CC1(C)CN(C(=O)NCCCCO)CCN1Cc1cccc(C(=O)Nc2sc3c(c2C(=O)Nc2cc(F)c(CCc4ccc(C(=O)O)cc4)c(F)c2)CCCC3)c1 [LY3358966, 4‐[2‐[2,6‐difluoro‐4‐[[2‐[[3‐[[4‐(4‐hydroxybutylcarbamoyl)‐2,2‐dimethyl‐piperazin‐1‐yl]methyl]benzoyl]amino]‐4,5,6,7‐tetrahydrobenzothiophene‐3‐carbonyl]amino]phenyl]ethyl]benzoic acid]
IC50 ([1]; geometric mean, 45 min at 20°C): 251 nM
Selectivity ([1]; ratio of IC50 of human NPT2c assay to that of human NPT2b assay): 8
NPT2b inhibitor mediated recovery in feces (difference between placebo and LY3358966-treated groups) ([2]; 48 h, 10 mg/kg): 5.3% and 5.34%
33P Recovered in Feces (0-6 hrs), Mean ± SEM [2]: 0.23 ± 0.19%
33P Recovered in Feces (6-24 hrs), Mean ± SEM [2]: 16.62 ± 1.04%
33P Recovered in Feces (24-48 hrs), Mean ± SEM [2]: 1.44 ± 0.14%
33P Recovered in Feces Total (0-48 hrs), Mean ± SEM ([2]; 10 mg/kg): 18.29 ± 1.04%
increase of 33P-phosphate recovery in the gastrointestinal tract over vehicle ([3]; 4 h): 6.34%
33P Recovered in G.I. Tract, Large Intestine (means ± SEM) ([3]; 4 hours): 13.75 ± 2.83%
33P Recovered in G.I. Tract, Small Intestine (means ± SEM) ([3]; 4 hours): 15.51 ± 2.37%
33P Recovered in G.I. Tract, Stomach (means ± SEM) ([3]; 4 hours): 1.83 ± 0.41%
33P Recovered in Total G.I. Tract (means ± SEM) ([3]; 4 hours, 10 mg/kg): 31.09% and 31.09 ± 1.38%
